Tested on: LG0703-F948-PDC spheroids with HUVEC/MSC, viability
Assay: Anticancer human tumor LG0703-F948-PDC patient-derived lung adenocarcinoma cell line growth inhibition [IpAb]
Details: for IC50: curve of first compound; for viability, T/C: stronger effect = lower value
Excerpt: Combinatorial screen of targeted agents with ipatasertib and abemaciclib in multi-cell type tumor spheroids
A high-throughput screen of multi-cell type tumor spheroids was designed to identify active combinations of targeted small molecules and ipatasertib or abemaciclib. Complex spheroids include a stromal component modeled by human endothelial cells (HUVEC) and fibroblasts modeled by human mesenchymal stem cells (MSCs). The concentration ranges selected for each drug and investigational agent were based upon clinically achievable concentrations if the clinical Cmax of the agent was known.
Compounds. The drugs and investigational agents: ipatasertib (NSC767898), abemaciclib(NSC768073), selumetinib (NSC741078), trametinib (758246), adavosertib (NSC754352), everolimus (NSC733504), sapanisertib (NSC764658), vemurafenib (NSC761431), venetoclax (NSC766270), copanlisib (NSC809693), apelisib (NSC765974), palbociblib (NSC758247), vemurafenib (NSC761431), dabrafenib (NSC764134), ravoxertinib (NSC781343), BMS-387032 (NSC767048), sotorasib (NSC818433), talazoparib (NSC767125) and afursertib (NSC778305), were obtained from the National Cancer Institute (NCI) Developmental Therapeutics Program Chemical Repository. The FDA-approved anticancer drug set is available from the NCI Developmental Therapeutics Program. […] The stock solutions were prepared in dimethyl sulfoxide (DMSO, Sigma-Aldrich, St. Louis, MO, cat. D2650) at 800-fold the tested concentration and stored at -70 degrees C prior to their use. All drugs and investigational agents were tested over a range starting from a high concentration at or near the clinical Cmax and decreasing in half-log increments. If the clinical Cmax for an agent had not been determined, the highest concentration tested was 10 microM.
NCI60 Cell Culture. NCI60 cell lines were obtained from the NCI Developmental Therapeutics Program Tumor Repository. For each lot of cells, the Repository performed Applied Biosystems AmpFLSTR Identifiler testing with PCR amplification to confirm consistency with the published Identifier STR profile for each cell line. Cells were kept in continuous culture for no more than 20 passages. The optimal seeding densities for each of the cell lines at each time point assessed were determined prior to performing the concentration response studies. Briefly, the NCI60 human tumor lines were grown as monolayers in RPMI 1640 medium supplemented with 10% FBS and 2 mmol/L L-glutamine.
An additional 9 lines were from the NCI60 cell line panel including MDA-MB-231 breast carcinoma, MDA-MB-468 breast carcinoma, MCF7 breast carcinoma, Hs578T breast carcinoma, MALME-3M melanoma, SK-MEL-2 melanoma, SK-OV-3 ovarian carcinoma, DU-145 prostate carcinoma, PC-3 prostate carcinoma, all cell lines along with major genetic alterations are listed on Table 2. Pooled donor human umbilical vein endothelial cells (HUVEC, Lonza, cat. CC-2519) and human mesenchymal stem cells (hMSC, Lonza, cat. PT-2501) were purchased from Lonza (Walkersville, MD).
PDMR cell lines were grown in complete medium (DC medium): Dulbecco's modified Eagle's medium (DMEM)/F12 supplemented with 5% fetal bovine serum (FBS), 2 mM L-glutamine, 100 U/mL penicillin and 100 µg/ml streptomycin, 0.4 µg/ml hydrocortisone, 10 ng/ml epidermal growth factor (EGF) recombinant human protein, 24 µg/mL adenine, and 0.1 mg/mL primocin. During culture from frozen stock vials, PDMR cells were cultured in the same medium containing 10 µM Y-27632 (see Table 3). The PDCs were cultured in complete DMEM/F12 media without 10 microM Y-27632 dihydrochloride for at least two passages prior to the screen. The pooled donor HUVEC and hMSC were cultured in endothelial cell growth medium 2 (PromoCell, Heidelberg, Germany, cat. C-22011) and mesenchymal stem cell growth medium 2 (PromoCell, cat. C-28009), respectively. For all experiments, HUVEC and hMSC were used at passages </=5.
[…]

[1] = second compound 0.1 µM, first compound 0.0316 µM
[2] = second compound 0.1 µM, first compound 0.1 µM
[3] = second compound 0.316 µM, first compound 0.0316 µM
[4] = second compound 0.316 µM, first compound 0.1 µM
[5] = second compound 1 µM, first compound 0.0316 µM
[6] = second compound 1 µM, first compound 0.1 µM
[7] = second compound 3.16 µM, first compound 0.0316 µM
[8] = second compound 3.16 µM, first compound 0.1 µM
[9] = second compound 10 µM, first compound 0.0316 µM
[10] = second compound 10 µM, first compound 0.1 µM
[11] = second compound 0.1 µM, first compound 0.316 µM
[12] = second compound 0.1 µM, first compound 1 µM
[13] = second compound 0.1 µM, first compound 3.16 µM
[14] = second compound 0.1 µM, first compound 10 µM
[15] = second compound 0.316 µM, first compound 0.316 µM
[16] = second compound 0.316 µM, first compound 1 µM
[17] = second compound 0.316 µM, first compound 3.16 µM
[18] = second compound 0.316 µM, first compound 10 µM
[19] = second compound 1 µM, first compound 0.316 µM
[20] = second compound 1 µM, first compound 1 µM
[21] = second compound 1 µM, first compound 3.16 µM
[22] = second compound 1 µM, first compound 10 µM
[23] = second compound 3.16 µM, first compound 0.316 µM
[24] = second compound 3.16 µM, first compound 1 µM
[25] = second compound 3.16 µM, first compound 3.16 µM
[26] = second compound 3.16 µM, first compound 10 µM
[27] = second compound 10 µM, first compound 0.316 µM
[28] = second compound 10 µM, first compound 1 µM
[29] = second compound 10 µM, first compound 3.16 µM
[30] = second compound 10 µM, first compound 10 µM
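Also: spheroids exposed to compounds for seven days before readout.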
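For viability, T/C in this document: T/C percent relative to DMSO vehicle wells set as 100% viability.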

SMILES: CC(C)n1nc(-c2ccc3oc(N)nc3c2)c2c(N)ncnc21 + CC(C)NCC(C(=O)N1CCN(c2ncnc3c2C(C)CC3O)CC1)c1ccc(Cl)cc1
- IC50 (second compound 0.1 µM): 2.49 nM
- IC50 (second compound 0.316 µM): 0.914 nM
- IC50 (second compound 1 µM): < 0.316 nM
- IC50 (second compound 3.16 µM): < 0.316 nM
- IC50 (second compound 10 µM): < 0.316 nM
- viability, T/C (second compound 0.1 µM, first compound 0.000316 µM): 77.5%
- viability, T/C (second compound 0.1 µM, first compound 0.001 µM): 64.8%
- viability, T/C (second compound 0.1 µM, first compound 0.00316 µM): 47.5%
- viability, T/C (second compound 0.1 µM, first compound 0.01 µM): 25.9%
- viability, T/C [1]: 18.9%
- viability, T/C [2]: 18.9%
- viability, T/C (second compound 0.316 µM, first compound 0.000316 µM): 65%
- viability, T/C (second compound 0.316 µM, first compound 0.001 µM): 49%
- viability, T/C (second compound 0.316 µM, first compound 0.00316 µM): 32%
- viability, T/C (second compound 0.316 µM, first compound 0.01 µM): 21.4%
- viability, T/C [3]: 16.4%
- viability, T/C [4]: 12.6%
- viability, T/C (second compound 1 µM, first compound 0.000316 µM): 49.1%
- viability, T/C (second compound 1 µM, first compound 0.001 µM): 37%
- viability, T/C (second compound 1 µM, first compound 0.00316 µM): 22.8%
- viability, T/C (second compound 1 µM, first compound 0.01 µM): 14%
- viability, T/C [5]: 11.2%
- viability, T/C [6]: 9.31%
- viability, T/C (second compound 3.16 µM, first compound 0.000316 µM): 39.7%
- viability, T/C (second compound 3.16 µM, first compound 0.001 µM): 24.9%
- viability, T/C (second compound 3.16 µM, first compound 0.00316 µM): 15.1%
- viability, T/C (second compound 3.16 µM, first compound 0.01 µM): 8.55%
- viability, T/C [7]: 7.95%
- viability, T/C [8]: 7.22%
- viability, T/C (second compound 10 µM, first compound 0.000316 µM): 31.7%
- viability, T/C (second compound 10 µM, first compound 0.001 µM): 18.1%
- viability, T/C (second compound 10 µM, first compound 0.00316 µM): 10.4%
- viability, T/C (second compound 10 µM, first compound 0.01 µM): 16.2%
- viability, T/C [9]: 5.1%
- viability, T/C [10]: 29.5%

SMILES: CC1(C)CCC(CN2CCN(c3ccc(C(=O)NS(=O)(=O)c4ccc(NCC5CCOCC5)c([N+](=O)[O-])c4)c(Oc4cnc5[nH]ccc5c4)c3)CC2)=C(c2ccc(Cl)cc2)C1 + CC(C)NCC(C(=O)N1CCN(c2ncnc3c2C(C)CC3O)CC1)c1ccc(Cl)cc1
- IC50 (second compound 0.1 µM): 4060 nM
- IC50 (second compound 0.316 µM): 3190 nM
- IC50 (second compound 1 µM): < 31.6 nM
- IC50 (second compound 3.16 µM): < 31.6 nM
- IC50 (second compound 10 µM): < 31.6 nM
- viability, T/C [1]: 90.8%
- viability, T/C [2]: 82.1%
- viability, T/C [11]: 77.8%
- viability, T/C [12]: 72.8%
- viability, T/C [13]: 64.2%
- viability, T/C [14]: 10.8%
- viability, T/C [3]: 71.2%
- viability, T/C [4]: 60%
- viability, T/C [15]: 67.4%
- viability, T/C [16]: 63%
- viability, T/C [17]: 50.4%
- viability, T/C [18]: 8.61%
- viability, T/C [5]: 49.2%
- viability, T/C [6]: 43%
- viability, T/C [19]: 53%
- viability, T/C [20]: 46.5%
- viability, T/C [21]: 44.3%
- viability, T/C [22]: 7.68%
- viability, T/C [7]: 42.1%
- viability, T/C [8]: 44.4%
- viability, T/C [23]: 40.9%
- viability, T/C [24]: 39.8%
- viability, T/C [25]: 30.6%
- viability, T/C [26]: 5.93%
- viability, T/C [9]: 41%
- viability, T/C [10]: 43.3%
- viability, T/C [27]: 35.3%
- viability, T/C [28]: 37.9%
- viability, T/C [29]: 29.2%
- viability, T/C [30]: 3.65%

SMILES: CCCS(=O)(=O)Nc1ccc(F)c(C(=O)c2c[nH]c3ncc(-c4ccc(Cl)cc4)cc23)c1F + CC(C)NCC(C(=O)N1CCN(c2ncnc3c2C(C)CC3O)CC1)c1ccc(Cl)cc1
- IC50 (second compound 0.1 µM): > 10000 nM
- IC50 (second compound 0.316 µM): > 10000 nM
- IC50 (second compound 1 µM): 3780 nM
- IC50 (second compound 3.16 µM): < 31.6 nM
- IC50 (second compound 10 µM): < 31.6 nM
- viability, T/C [1]: 85.5%
- viability, T/C [2]: 89.6%
- viability, T/C [11]: 85%
- viability, T/C [12]: 91.2%
- viability, T/C [13]: 86.2%
- viability, T/C [14]: 67.5%
- viability, T/C [3]: 69.2%
- viability, T/C [4]: 71.7%
- viability, T/C [15]: 68.4%
- viability, T/C [16]: 78.2%
- viability, T/C [17]: 75%
- viability, T/C [18]: 55.6%
- viability, T/C [5]: 54.1%
- viability, T/C [6]: 49.6%
- viability, T/C [19]: 50%
- viability, T/C [20]: 52.1%
- viability, T/C [21]: 56.9%
- viability, T/C [22]: 36.5%
- viability, T/C [7]: 41.1%
- viability, T/C [8]: 42.8%
- viability, T/C [23]: 45%
- viability, T/C [24]: 46.3%
- viability, T/C [25]: 49.6%
- viability, T/C [26]: 25.6%
- viability, T/C [9]: 35.6%
- viability, T/C [10]: 39.7%
- viability, T/C [27]: 38.3%
- viability, T/C [28]: 45.1%
- viability, T/C [29]: 44%
- viability, T/C [30]: 7.66%
